The values below are quoted from earlier work in US9248112B2, “Hemodialysis and peritoneal dialysis solutions comprising one or more creatine compounds” (CREARENE LTD., priority 2009, dated 2016).

Where two headings read alike, the source gives them in different places.

Data set [1] deals with T1, creatine transporter protein (CrT) (Homo sapiens, UniProt P48029).
T1 sequence (P48029 1-635): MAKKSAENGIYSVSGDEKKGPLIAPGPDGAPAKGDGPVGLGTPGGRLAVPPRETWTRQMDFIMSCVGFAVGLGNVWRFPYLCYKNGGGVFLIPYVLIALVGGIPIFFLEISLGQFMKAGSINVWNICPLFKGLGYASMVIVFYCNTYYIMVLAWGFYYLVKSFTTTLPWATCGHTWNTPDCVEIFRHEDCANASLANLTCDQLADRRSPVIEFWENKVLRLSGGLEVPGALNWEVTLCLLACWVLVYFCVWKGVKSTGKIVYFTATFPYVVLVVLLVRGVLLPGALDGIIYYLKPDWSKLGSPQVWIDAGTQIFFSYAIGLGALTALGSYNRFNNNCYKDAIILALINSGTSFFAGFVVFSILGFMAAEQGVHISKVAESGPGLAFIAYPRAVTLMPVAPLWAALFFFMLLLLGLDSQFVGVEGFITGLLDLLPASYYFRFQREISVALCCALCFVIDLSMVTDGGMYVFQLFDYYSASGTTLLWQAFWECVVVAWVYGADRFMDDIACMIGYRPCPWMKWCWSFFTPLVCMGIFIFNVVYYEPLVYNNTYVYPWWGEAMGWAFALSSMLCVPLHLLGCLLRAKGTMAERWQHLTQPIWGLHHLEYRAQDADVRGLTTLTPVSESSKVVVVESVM
As to conditions: CrT in the plasma membrane.

The conditions of data set [2]: peritoneal dialysis solution, 37° C.
In data set [3] the test system is homocysteine.
Data set [4] relates to homocysteine. Conditions: animal model.
For data set [5] the following is noted: adults, clinical studies.
Test in data set [6]: not given
This is another data set of the same source.

Test in data set [7]: not given
The source holds these as a separate data set.

Usually Km stands for the substrate concentration at which the rate is half of its maximum. For `CN(CC(=O)O)C(=N)N` [creatine], the Km in data set [1] is 25 to 30 µM. Besides, the “concentration near the saturation limit of creatine” value in data set [2] is 24-25 g per liter. Moreover, the serum creatine concentration (after a single oral dose of 5-20 g of creatine) is 1-2 mM/l. Moreover, where the note is “ingested (oral) creatine”, the “time to reach maximal levels in the blood stream” value is “two to four”. The homocystein levels entry in the data set with homocysteine [3] (2 g/day, additionally vitamin B supplemented subjects) is “no such effects were seen”; in the data set with homocysteine [3] (humans, approximately 5 g Cr/day) it was “reduction of homocystein levels”. The “serum levels of homocysteine” value with homocysteine [4] was “reduce serum levels”. In data set [5], the safe daily intake result is listed as “up to 20 g daily”.
Take `CN(CC(=O)O)C(=N)N.O` [creatine monohydrate]: the “stability in acidic aqueous solutions” value in data set [6] (acidic aqueous solutions, temperatures over 60° C.) was “some instability”. For the same compound, in data set [6] (neutral pH, cooled), the “storage stability in solution” value is reported as “can be stored for thirty days without losses”. The “decrease in muscle cramps” value in data set [7] (12 g orally 5 minutes before hemodialysis, four week treatment) is recorded as 60%. The “serum creatinin after treatment” value in data set [7] (after four week treatment period, 12 g orally before hemodialysis) is 12.4 mg/dL. For the same compound, the “serum creatinin before treatment” value in data set [7] (start of four week treatment period) is 10.7 mg/dL.
